The assay addresses α-melanocyte-stimulating hormone receptor (hMC4R) (Homo sapiens (Human), UniProt P32245). The assay can be described thus: In vitro binding affinity assay using hMC4R (radioligand competition binding, [125I]-(Nle4, D-Phe7)-α-MSH). Particulars: geometric mean, read-out: Ki (nM) geometric. Put shortly: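 Membranes from CHO cells stably expressing hMC4R (2 μg/well) incubated 2 h RT with [125I]-NDP-α-MSH and compound (300 nM-0.01 nM, 1% DMSO); 2 μM α-MSH defined nonspecific binding. Filtration and scintillation counting; Ki from IC50 via Cheng-Prusoff.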
(Loss of bound radioactivity is the signal in a displacement assay; it reports binding, not function.)

Drawing on US20250084084A1, “Crystalline form of (2R)-2-(5-fluoro-2-methoxypyridin-4-yl)-1-[(2S)-7-methyl-6-(pyrimidin-2-yl)-3,4-dihydro-1H-spiro[1,8-naphthyridine-2,3-pyrrolidin]-1-yl]propan-1-one” (Pfizer Inc., priority 2020, published 2025), this text covers Ki for 23 compounds.

α-melanocyte-stimulating hormone receptor (hMC4R), sequence (P32245 whole entry): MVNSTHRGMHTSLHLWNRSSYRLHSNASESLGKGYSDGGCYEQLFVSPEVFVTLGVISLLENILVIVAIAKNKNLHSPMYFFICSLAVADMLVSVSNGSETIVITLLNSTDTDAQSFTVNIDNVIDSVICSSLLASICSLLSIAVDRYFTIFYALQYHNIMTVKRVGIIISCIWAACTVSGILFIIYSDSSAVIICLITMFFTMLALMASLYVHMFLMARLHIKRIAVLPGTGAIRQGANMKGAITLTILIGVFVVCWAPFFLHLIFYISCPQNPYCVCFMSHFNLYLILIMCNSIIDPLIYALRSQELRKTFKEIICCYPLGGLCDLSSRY

On to `COc1cc([C@@H](C)C(=O)N2CC[C@@]3(CCc4cc(-c5ccc(C(F)(F)F)cn5)c(C)nc4N3)C2)c(F)cn1` [Example 155, (2R)-2-(5-fluoro-2-methoxypyridin-4-yl)-1-{(2S)-7-methyl-6-[5-(trifluoromethyl)pyridin-2-yl]-3,4-dihydro-1H-spiro[1,8-naphthyridine-2,3′-pyrrolidin]-1′-yl}propan-1-one], for which the Ki came to 27 nM. The figure for `COc1cc([C@@H](C)C(=O)N2CC[C@@]3(CCc4cc(-c5cncc(C)n5)c(C)nc4N3)C2)c(F)cn1` [Example 156, (2R)-2-(5-fluoro-2-methoxypyridin-4-yl)-1-[(2S)-7-methyl-6-(6-methylpyrazin-2-yl)-3,4-dihydro-1H-spiro[1,8-naphthyridine-2,3′-pyrrolidin]-1′-yl]propan-1-one] is 5.9 nM; for `COc1cc([C@@H](C)C(=O)N2CC[C@@]3(CCc4cc(-c5nc(C(C)(C)C)cs5)c(C)nc4N3)C2)c(F)cn1` [Example 157, (2R)-1-[(2S)-6-(4-tert-butyl-1,3-thiazol-2-yl)-7-methyl-3,4-dihydro-1H-spiro[1,8-naphthyridine-2,3′-pyrrolidin]-1′-yl]-2-(5-fluoro-2-methoxypyridin-4-yl)propan-1-one] it is 15 nM; for `COc1cc([C@@H](C)C(=O)N2CC[C@@]3(CCc4cc(-c5cnc(C)cn5)c(C)nc4N3)C2)c(F)cn1` [Example 158, (2R)-2-(5-fluoro-2-methoxypyridin-4-yl)-1-[(2S)-7-methyl-6-(5-methylpyrazin-2-yl)-3,4-dihydro-1H-spiro[1,8-naphthyridine-2,3′-pyrrolidin]-1′-yl]propan-1-one] it is 3.2 nM. Next, `COc1cc([C@@H](C)C(=O)N2CC[C@@]3(CCc4cc(-c5ccc(OC(F)F)nc5)c(C)nc4N3)C2)c(F)cn1` [Example 159, (2R)-1-{(2S)-6-[6-(difluoromethoxy)pyridin-3-yl]-7-methyl-3,4-dihydro-1H-spiro[1,8-naphthyridine-2,3′-pyrrolidin]-1′-yl}-2-(5-fluoro-2-methoxypyridin-4-yl)propan-1-one]: 18 nM. With `COc1cc([C@@H](C)C(=O)N2CC[C@@]3(CCc4cc(-c5cc6onc(C)c6cc5C)c(C)nc4N3)C2)c(F)cn1` [Example 160, (2R)-1-[(2S)-6-(3,5-dimethyl-1,2-benzoxazol-6-yl)-7-methyl-3,4-dihydro-1H-spiro[1,8-naphthyridine-2,3′-pyrrolidin]-1′-yl]-2-(5-fluoro-2-methoxypyridin-4-yl)propan-1-one], the Ki worked out at 200 nM. `COc1cc([C@@H](C)C(=O)N2CC[C@@]3(CCc4cc(-c5cccc(-c6nnc(C)o6)c5)c(C)nc4N3)C2)c(F)cn1` [Example 161, (2R)-2-(5-fluoro-2-methoxypyridin-4-yl)-1-{(2S)-7-methyl-6-[3-(5-methyl-1,3,4-oxadiazol-2-yl)phenyl]-3,4-dihydro-1H-spiro[1,8-naphthyridine-2,3′-pyrrolidin]-1′-yl}propan-1-one]: the Ki worked out at 47 nM.

Take `COc1cc([C@@H](C)C(=O)N2CC[C@@]3(CCc4cc(-c5nc(C(C)C)ns5)c(C)nc4N3)C2)c(F)cn1` [Example 162, (2R)-2-(5-fluoro-2-methoxypyridin-4-yl)-1-{(2S)-7-methyl-6-[3-(propan-2-yl)-1,2,4-thiadiazol-5-yl]-3,4-dihydro-1H-spiro[1,8-naphthyridine-2,3′-pyrrolidin]-1′-yl}propan-1-one]: the Ki was 8.2 nM.

Turning to `COc1cc([C@@H](C)C(=O)N2CC[C@@]3(CCc4cc(-c5nc(C)c(C)s5)c(C)nc4N3)C2)c(F)cn1` [Example 163, (2R)-1-[(2S)-6-(4,5-dimethyl-1,3-thiazol-2-yl)-7-methyl-3,4-dihydro-1H-spiro[1,8-naphthyridine-2,3′-pyrrolidin]-1′-yl]-2-(5-fluoro-2-methoxypyridin-4-yl)propan-1-one], the Ki came out at 2.8 nM. Next, `COc1cc([C@@H](C)C(=O)N2CC[C@@]3(CCc4cc(-c5nccnc5C)c(C)nc4N3)C2)c(F)cn1` [Example 164, (2R)-2-(5-fluoro-2-methoxypyridin-4-yl)-1-[(2S)-7-methyl-6-(3-methylpyrazin-2-yl)-3,4-dihydro-1H-spiro[1,8-naphthyridine-2,3′-pyrrolidin]-1′-yl]propan-1-one]: 18 nM; `COc1cc([C@@H](C)C(=O)N2CC[C@@]3(CCc4cc(-c5ccc6sc(C)nc6c5)c(C)nc4N3)C2)c(F)cn1` [Example 165, (2R)-2-(5-fluoro-2-methoxypyridin-4-yl)-1-[(2S)-7-methyl-6-(2-methyl-1,3-benzothiazol-5-yl)-3,4-dihydro-1H-spiro[1,8-naphthyridine-2,3′-pyrrolidin]-1′-yl]propan-1-one]: 81 nM. Next, `COc1cc([C@@H](C)C(=O)N2CC[C@@]3(CCc4cc(-c5cc(C)ccn5)c(C)nc4N3)C2)c(F)cn1` [Example 166, (2R)-2-(5-fluoro-2-methoxypyridin-4-yl)-1-[(2S)-7-methyl-6-(4-methylpyridin-2-yl)-3,4-dihydro-1H-spiro[1,8-naphthyridine-2,3′-pyrrolidin]-1′-yl]propan-1-one]: 8.2 nM. Regarding `COc1cc([C@@H](C)C(=O)N2CC[C@@]3(CCc4cc(-c5nccs5)c(C)nc4N3)C2)c(F)cn1` [Example 167, (2R)-2-(5-fluoro-2-methoxypyridin-4-yl)-1-[(2S)-7-methyl-6-(1,3-thiazol-2-yl)-3,4-dihydro-1H-spiro[1,8-naphthyridine-2,3′-pyrrolidin]-1′-yl]propan-1-one], the Ki was 5.4 nM. The figure for `COc1cc([C@@H](C)C(=O)N2CC[C@@]3(CCc4cc(-c5nnc(N6CCCCC6)s5)c(C)nc4N3)C2)c(F)cn1` [Example 168, (2R)-2-(5-fluoro-2-methoxypyridin-4-yl)-1-{(2S)-7-methyl-6-[5-(piperidin-1-yl)-1,3,4-thiadiazol-2-yl]-3,4-dihydro-1H-spiro[1,8-naphthyridine-2,3′-pyrrolidin]-1′-yl}propan-1-one] is 86 nM. Regarding `COc1cc([C@@H](C)C(=O)N2CC[C@@]3(CCc4cc(-c5ccncc5)c(C)nc4N3)C2)c(F)cn1` [Example 169, (2R)-2-(5-fluoro-2-methoxypyridin-4-yl)-1-[(2S)-7-methyl-6-(pyridin-4-yl)-3,4-dihydro-1H-spiro[1,8-naphthyridine-2,3′-pyrrolidin]-1′-yl]propan-1-one], the Ki amounted to 7.6 nM.

Turning to `COc1cc([C@@H](C)C(=O)N2CC[C@@]3(CCc4cc(-c5cnc(C(F)(F)F)nc5)c(C)nc4N3)C2)c(F)cn1` [Example 170, (2R)-2-(5-fluoro-2-methoxypyridin-4-yl)-1-{(2S)-7-methyl-6-[2-(trifluoromethyl)pyrimidin-5-yl]-3,4-dihydro-1H-spiro[1,8-naphthyridine-2,3′-pyrrolidin]-1′-yl}propan-1-one], the Ki is 43 nM. Next, `COc1cc([C@@H](C)C(=O)N2CC[C@@]3(CCc4cc(-c5csc(C6CC6)n5)c(C)nc4N3)C2)c(F)cn1` [Example 171, (2R)-1-[(2S)-6-(2-cyclopropyl-1,3-thiazol-4-yl)-7-methyl-3,4-dihydro-1H-spiro[1,8-naphthyridine-2,3′-pyrrolidin]-1′-yl]-2-(5-fluoro-2-methoxypyridin-4-yl)propan-1-one]: 3.6 nM; `COc1cc([C@@H](C)C(=O)N2CC[C@@]3(CCc4cc(-c5cccc(-c6cnco6)c5)c(C)nc4N3)C2)c(F)cn1` [Example 173, (2R)-2-(5-fluoro-2-methoxypyridin-4-yl)-1-{(2S)-7-methyl-6-[3-(1,3-oxazol-5-yl)phenyl]-3,4-dihydro-1H-spiro[1,8-naphthyridine-2,3′-pyrrolidin]-1′-yl}propan-1-one]: 85 nM; `COc1cc([C@@H](C)C(=O)N2CC[C@@]3(CCc4cc(-c5ccc(C(F)F)nc5)c(C)nc4N3)C2)c(F)cn1` [Example 174, (2R)-1-{(2S)-6-[6-(difluoromethyl)pyridin-3-yl)-7-methyl-3,4-dihydro-1H-spiro[1,8-naphthyridine-2,3′-pyrrolidin]-1′-yl}-2-(5-fluoro-2-methoxypyridin-4-yl)propan-1-one]: 26 nM. The figure for `COc1cc([C@@H](C)C(=O)N2CC[C@@]3(CCc4cc(-c5ccc(-c6noc(C)n6)cc5)c(C)nc4N3)C2)c(F)cn1` [Example 175, (2R)-2-(5-fluoro-2-methoxypyridin-4-yl)-1-{(2S)-7-methyl-6-[4-(5-methyl-1,2,4-oxadiazol-3-yl)phenyl]-3,4-dihydro-1H-spiro[1,8-naphthyridine-2,3′-pyrrolidin]-1′-yl}propan-1-one] is 45 nM; for `COc1cc([C@@H](C)C(=O)N2CC[C@@]3(CCc4cc(-c5cc(C)ns5)c(C)nc4N3)C2)c(F)cn1` [Example 176, (2R)-2-(5-fluoro-2-methoxypyridin-4-yl)-1-[(2S)-7-methyl-6-(3-methyl-1,2-thiazol-5-yl)-3,4-dihydro-1H-spiro[1,8-naphthyridine-2,3′-pyrrolidin]-1′-yl]propan-1-one] it is 26 nM. `COc1cc([C@@H](C)C(=O)N2CC[C@@]3(CCc4cc(-c5cncc(C6CC6)n5)c(C)nc4N3)C2)c(F)cn1` [Example 177, (2R)-1-[(2S)-6-(6-cyclopropylpyrazin-2-yl)-7-methyl-3,4-dihydro-1H-spiro[1,8-naphthyridine-2,3′-pyrrolidin]-1′-yl]-2-(5-fluoro-2-methoxypyridin-4-yl)propan-1-one]: the Ki came to 59 nM. Take `COc1cc([C@@H](C)C(=O)N2CC[C@@]3(CCc4cc(-c5cccc(C(F)(F)F)n5)c(C)nc4N3)C2)c(F)cn1` [Example 178, (2R)-2-(5-fluoro-2-methoxypyridin-4-yl)-1-{(2S)-7-methyl-6-[6-(trifluoromethyl)pyridin-2-yl]-3,4-dihydro-1H-spiro[1,8-naphthyridine-2,3′-pyrrolidin]-1′-yl}propan-1-one]: the Ki came to 4.7 nM.

What is called Ki is a measure of affinity in units of concentration, obtained from inhibition or displacement.
